From patent US11541107B2, “Peptides and T cells for use in immunotherapeutic treatment of various cancers” (Immatics Biotechnologies GmbH, priority 2015, dated 2023) come the findings set out here.

In one assay the test system is CD8+ T cells. Briefly: In vitro T-cell priming assay (aAPCs loaded with peptide/MHC and anti-CD28, pMHC multimer readout; HLA-A*02 and HLA-A*24). It is filed as cell-based, human. Particulars: in vitro immunogenicity of HLA class I peptides; for Wells positive [%]: peptide-specific T cells by pMHC multimer staining. An excerpt: In order to obtain information regarding the immunogenicity of the TUMAPs of the present invention, the inventors performed investigations using an in vitro T-cell priming assay based on repeated stimulations of CD8+ T cells with artificial antigen presenting cells (aAPCs) loaded with peptide/MHC complexes and anti-CD28 antibody.
In order to perform in vitro stimulations by artificial antigen presenting cells loaded with peptide-MHC complex (pMHC) and anti-CD28 antibody, the inventors first isolated CD8+ T cells from fresh HLA-A*02 leukapheresis products via positive selection using CD8 microbeads (Miltenyi Biotec, Bergisch-Gladbach, Germany) of healthy donors obtained from the University clinics Mannheim, Germany, after informed consent.
PBMCs and isolated CD8+ lymphocytes were incubated in T-cell medium (TCM) until use consisting of RPMI-Glutamax (Invitrogen, Karlsruhe, Germany) supplemented with 10% heat inactivated human AB serum (PAN-Biotech, Aidenbach, Germany), 100 U/ml Penicillin/100 μg/ml Streptomycin (Cambrex, Cologne, Germany), 1 mM sodium pyruvate (CC Pro, Oberdorla, Germany), 20 μg/ml Gentamycin (Cambrex). 2.5 ng/ml IL-7 (PromoCell, Heidelberg, Germany) and 10 U/ml IL-2 (Novartis Pharma, Nürnberg, Germany) were also added to the TCM at this step.
Generation of pMHC/anti-CD28 coated beads, T-cell stimulations and readout was performed in a highly defined in vitro system using four different pMHC molecules per stimulation condition and 8 different pMHC molecules per readout condition.
The purified co-stimulatory mouse IgG2a anti human CD28 Ab 9.3 (Jung et al., 1987) was chemically biotinylated using Sulfo-N-hydroxysuccinimidobiotin as recommended by the manufacturer (Perbio, Bonn, Germany). Beads used were 5.6 μm diameter streptavidin coated polystyrene particles (Bangs Laboratories, Illinois, USA).
pMHC used for positive and negative control stimulations were A*0201/MLA-001 (peptide […] (SEQ ID NO. 418) from modified Melan-A/MART-1) and A*0201/DDX5-001 ([…] from DDX5, SEQ ID NO. 419), respectively.
800.000 beads/200 μl were coated in 96-well plates in the presence of 4×12.5 ng different biotin-pMHC, washed and 600 ng biotin anti-CD28 were added subsequently in a volume of 200 μl. Stimulations were initiated in 96-well plates by co-incubating 1×10^6 CD8+ T cells with 2×10^5 washed coated beads in 200 μl TCM supplemented with 5 ng/ml IL-12 (PromoCell) for 3 days at 37° C. Half of the medium was then exchanged by fresh TCM supplemented with 80 U/ml IL-2 and incubating was continued for 4 days at 37° C. This stimulation cycle was performed for a total of three times. For the pMHC multimer readout using 8 different pMHC molecules per condition, a two-dimensional combinatorial coding approach was used as previously described (Andersen et al., 2012) with minor modifications encompassing coupling to 5 different fluorochromes. Finally, multimeric analyses were performed by staining the cells with Live/dead near IR dye (Invitrogen, Karlsruhe, Germany), CD8-FITC antibody clone SK1 (BD, Heidelberg, Germany) and fluorescent pMHC multimers. For analysis, a BD LSRII SORP cytometer equipped with appropriate lasers and filters was used. Peptide specific cells were calculated as percentage of total CD8+ cells. Evaluation of multimeric analysis was done using the FlowJo software (Tree Star, Oregon, USA). In vitro priming of specific multimer+CD8+ lymphocytes was detected by comparing to negative control stimulations.
Exemplary flow cytometry results after TUMAP-specific multimer staining for 2 peptides of the invention are shown in FIGS. 3A-3B together with corresponding negative controls. Results for 5 peptides from the invention are summarized in Table12A. Exemplary flow cytometry results after TUMAP-specific multimer staining for 7 peptides of the invention are shown in FIGS. 4A-4C and FIGS. 5A-5D together with corresponding negative controls.

The subject of a further assay is HLA-A*24. Briefly: MHC binding assay, UV-ligand exchange with beta2m ELISA, HLA-A*24. On the set-up: species or system human. Particulars: binding to HLA-A*24 ranged by peptide exchange yield (UV-ligand exchange, beta2m ELISA). The gist of the method:
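Peptide–MHC complexes made by UV-ligand exchange of a UV-cleavable peptide. Exchange yield measured by ELISA: monomers diluted 100-fold on streptavidin-coated plates, 1 h at 37°C, detected with HRP anti-β2m (2 ug/ml) and TMB, absorbance at 450 nm.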
A general note: An ELISA detects its analyte on a solid surface through an enzyme-linked reagent.

The next assay addresses HLA-A*02 (Homo sapiens, UniProt P04439, D140Y/D185E/D98H/E176V/E277Q/G131W/G231S/I119V/I121R/I166T/I218V/L300P/N151K/N90K/P208A/P217A/Q86G/Q94H/R138H/R169H). Briefly: MHC binding assay, UV-ligand exchange with beta2m ELISA, HLA-A*02. The settings on record: binding to HLA-A*02 ranged by peptide exchange yield (UV-ligand exchange, beta2m ELISA). An excerpt:
Candidate peptides for T cell based therapies according to the present invention were further tested for their MHC binding capacity (affinity). The individual peptide-MHC complexes were produced by UV-ligand exchange, where a UV-sensitive peptide is cleaved upon UV-irradiation, and exchanged with the peptide of interest as analyzed. Only peptide candidates that can effectively bind and stabilize the peptide-receptive MHC molecules prevent dissociation of the MHC complexes. To determine the yield of the exchange reaction, an ELISA was performed based on the detection of the light chain (ß2 m) of stabilized MHC complexes. The assay was performed as generally described in Rodenko et al. (Rodenko et al., 2006).
96 well MAXISorp plates (NUNC) were coated over night with 2 ug/ml streptavidin in PBS at room temperature, washed 4× and blocked for 1 h at 37° C. in 2% BSA containing blocking buffer. […] Peptide-MHC monomers of the UV-exchange reaction were diluted 100 fold in blocking buffer. Samples were incubated for 1 h at 37° C., washed four times, incubated with 2 ug/ml HRP conjugated anti-β2 m for 1h at 37° C., washed again and detected with TMB solution that is stopped with […]. Absorption was measured at 450 nm. Candidate peptides that show a high exchange yield (preferably higher than 50%, most preferred higher than 75%) are generally preferred for a generation and production of antibodies or fragments thereof, and/or T cell receptors or fragments thereof, as they show sufficient avidity to the MHC molecules and prevent dissociation of the MHC complexes.

In the case of “365 (VFIDHPVHL; listed as Homo sapiens) [compound 365]”, the “Wells positive [%]” value in the assay with CD8+ T cells is “+ (<20% = +)”. For the same substance, the Peptide exchange entry in the assay with HLA-A*24 is given as “++++ (>=75% = ++++)”. For “142 (VYVDDIYVI; listed as Homo sapiens) [compound 142]”, the “Wells positive [%]” value with CD8+ T cells was “++++ (>=70% = ++++)”. Also, the Peptide exchange result with HLA-A*24 is recorded as “+++ (50%-75% = +++)”.

“115 (RYLNKSFVL; listed as Homo sapiens) [compound 115]”: the “Wells positive [%]” value with CD8+ T cells is reported as “+ (<20% = +)”. Moreover, the Peptide exchange result with HLA-A*24 is reported as “+++ (50%-75% = +++)”. For “358 (YYSEVPVKL; listed as Homo sapiens) [compound 358]”, the “Wells positive [%]” value in the assay on CD8+ T cells is recorded as “++++ (>=70% = ++++)”. Besides, in the assay on HLA-A*24, the Peptide exchange result is reported as “+++ (50%-75% = +++)”. Regarding “175 (LYSPVPFTL; listed as Homo sapiens) [compound 175]”, in the assay with CD8+ T cells, the “Wells positive [%]” value is listed as “+ (<20% = +)”. Besides, in the assay on HLA-A*24, the Peptide exchange result is on record as “+++ (50%-75% = +++)”. Turning to “407 (VYGIRLEHF; listed as Homo sapiens) [compound 407]”, the wells entry in the assay on CD8+ T cells (share of positive wells after stimulation of CD8+ T cells of healthy donors) is “+++ (50%-69%= +++)”. Turning to “103 (NYIPVKNGKQF; listed as Homo sapiens) [compound 103]”, in the assay on CD8+ T cells, the “Wells positive [%]” value is “+ (<20% = +)”. Moreover, the Peptide exchange entry with HLA-A*24 is “+++ (50%-75% = +++)”. Regarding “177 (VYFKAGLDVF; listed as Homo sapiens) [compound 177]”, in the assay on CD8+ T cells, the “Wells positive [%]” value is “+ (<20% = +)”. Also, the Peptide exchange result in the assay with HLA-A*24 was “+++ (50%-75% = +++)”. For “353 (TYGKIDLGF; listed as Homo sapiens) [compound 353]” the same measures were “+ (<20% = +)” and “+++ (50%-75% = +++)”. As for “359 (NYGVLHVTF; listed as Homo sapiens) [compound 359]”, the “Wells positive [%]” value in the assay on CD8+ T cells is recorded as “+ (<20% = +)”. In addition, the Peptide exchange result in the assay on HLA-A*24 was “++++ (>=75% = ++++)”. As for “354 (VYNEQIRDLL; listed as Homo sapiens) [compound 354]”, the “Wells positive [%]” value in the assay on CD8+ T cells was “+ (<20% = +)”. The Peptide exchange entry in the assay with HLA-A*24 is “+++ (50%-75% = +++)”. In the case of “162 (KYTSYILAF; listed as Homo sapiens) [compound 162]”, the “Wells positive [%]” value in the assay with CD8+ T cells was “+ (<20% = +)”. Moreover, the Peptide exchange entry in the assay on HLA-A*24 is on record as “++ (20%-49% = ++)”. For the substance “106 (IYNETVRDLL; listed as Homo sapiens) [compound 106]”, the “Wells positive [%]” value in the assay on CD8+ T cells is “+ (<20% = +)”. In addition, the Peptide exchange entry with HLA-A*24 is recorded as “+++ (50%-75% = +++)”. As to “132 (RYPALFPVL; listed as Homo sapiens) [compound 132]”, in the assay on CD8+ T cells, the “Wells positive [%]” value is “+ (<20% = +)”. Besides, in the assay with HLA-A*24, the Peptide exchange entry is recorded as “++++ (>=75% = ++++)”. In the case of “190 (LYSELTETL; listed as Homo sapiens) [compound 190]”, the “Wells positive [%]” value in the assay on CD8+ T cells is “++++ (>=70% = ++++)”. Besides, the Peptide exchange result with HLA-A*24 is on record as “+++ (50%-75% = +++)”. As to “356 (NYMPGQLTI; listed as Homo sapiens) [compound 356]”, the “Wells positive [%]” value in the assay on CD8+ T cells is “+ (<20% = +)”. In addition, in the assay on HLA-A*24, the Peptide exchange entry is reported as “++++ (>=75% = ++++)”. “98 (VFPRLHNVLF; listed as Homo sapiens) [compound 98]”: the “Wells positive [%]” value with CD8+ T cells is listed as “+ (<20% = +)”. Moreover, in the assay on HLA-A*24, the Peptide exchange result is listed as “+++ (50%-75% = +++)”. Turning to “158 (IYEETRGVLKVF; listed as Homo sapiens) [compound 158]”, the “Wells positive [%]” value in the assay with CD8+ T cells is “+ (<20% = +)”. In addition, the Peptide exchange entry in the assay on HLA-A*24 is “+++ (50%-75% = +++)”. For “380 (VYTGIDHHW; listed as Homo sapiens) [compound 380]” the same measures were “+ (<20% = +)” and “++++ (>=75% = ++++)”. In the case of “156 (YYMELTKLLL; listed as Homo sapiens) [compound 156]”, the “Wells positive [%]” value in the assay with CD8+ T cells was “+ (<20% = +)”. The Peptide exchange result in the assay with HLA-A*24 is “++++ (>=75% = ++++)”.

Turning to “363 (SYAELGTTI; listed as Homo sapiens) [compound 363]”, in the assay on CD8+ T cells, the “Wells positive [%]” value is given as “+ (<20% = +)”. Further, the Peptide exchange result in the assay on HLA-A*24 was “++ (20%-49% = ++)”. For the substance “161 (KYPDIVQQF; listed as Homo sapiens) [compound 161]”, the “Wells positive [%]” value in the assay on CD8+ T cells is “+ (<20% = +)”. Further, the Peptide exchange entry in the assay with HLA-A*24 is “+++ (50%-75% = +++)”. For “174 (VYEKNGYIYF; listed as Homo sapiens) [compound 174]”, in the assay with CD8+ T cells, the “Wells positive [%]” value is recorded as “++++ (>=70% = ++++)”. In the assay with HLA-A*24, the Peptide exchange result is given as “+++ (50%-75% = +++)”. For “344 (EYNSDLHQF; listed as Homo sapiens) [compound 344]” the same measures were “+ (<20% = +)” and “+++ (50%-75% = +++)”. Take “321 (SLWFKPEEL; listed as Homo sapiens) [compound 321]”: in the assay with HLA-A*02, the Peptide exchange entry is recorded as “+++ (50%-75% = +++)”. Consider “3 (TLLGKQVTL; listed as Homo sapiens) [compound 3]”, for which, in the assay with HLA-A*02, the Peptide exchange result was “+++ (50%-75% = +++)”. Take “25 (IQADDFRTL; listed as Homo sapiens) [compound 25]”: the Peptide exchange entry in the assay with HLA-A*02 was “++ (20%-49% = ++)”. On the same count and under the same terms, under “75 (ILDNVKNLL; listed as Homo sapiens) [compound 75]” stands “+++ (50%-75% = +++)”. For “44 (GLLWQIIKV; listed as Homo sapiens) [compound 44]”, the Peptide exchange result with HLA-A*02 is “++ (20%-49% = ++)”. For the substance “32 (ILADEAFFSV; listed as Homo sapiens) [compound 32]”, the Peptide exchange entry in the assay with HLA-A*02 is “+++ (50%-75% = +++)”.

Regarding “19 (TLLPTVLTL; listed as Homo sapiens) [compound 19]”, the Peptide exchange entry in the assay with HLA-A*02 is “+++ (50%-75% = +++)”. Regarding “64 (GLSSSSYEL; listed as Homo sapiens) [compound 64]”, in the assay with HLA-A*02, the Peptide exchange entry was “++ (20%-49% = ++)”. Same read-out and setting: as for “24 (FLWNGEDSAL; listed as Homo sapiens) [compound 24]”, the entry is “+++ (50%-75% = +++)”.
